Measurements taken from patent US9669028B2, “Substituted 5-(pyrazin-2-yl)-1H-pyrazolo [3, 4-B] pyridine and pyrazolo [3, 4-B] pyridine derivatives as protein kinase inhibitors” (Arrien Pharmaceuticals LLC, priority 2011, dated 2017).

Assays:
LRRK2 = LRRK2 (Homo sapiens (Human), UniProt Q5S007); assay: LRRK2 Kinase Assay; assay type: biochemical; conditions: 10 μM ATP
Procedure: Briefly, specific kinase/substrate pairs along with required cofactors were prepared in reaction buffer; 20 mM Hepes (pH 7.5), 10 mM MgCl2, 1 mM EGTA, 0.02% Brij35, 0.02 mg/ml BSA, 0.1 mM Na3VO4, 2 mM DTT, 1% DMSO. Compounds were delivered into the reaction, followed ˜20 min later by addition of a mixture of ATP (Sigma) and 33P ATP (PerkinElmer) to a final concentration of 10 μM. […] IC50 values and curve fits were obtained using Prism (GraphPad Software). Kinome tree representations were prepared using Kinome Mapper (http://www.reactionbiology.com/apps/kinome/mapper/Launch Kinome.htm).
For the wild type LRRK the 2×LRRK2/ERM (LRRKtide) mixture was prepared in 50 mM Tris pH 8.5, 0.01% BRIJ-35, 10 mM MgCl2, 1 mM EGTA, 0.02% NaN3. […] After 1 hour Kinase Reaction incubation, 5 μL of Detection Mix was added.

LRRK2 G2019S = LRRK2 G2019S (Homo sapiens (Human), UniProt Q5S007, G2019S); assay: LRRK2 G2019S Kinase Assay; assay type: biochemical; conditions: 10 μM ATP
Sequence of LRRK2 G2019S (Q5S007 970-2527 G2019S): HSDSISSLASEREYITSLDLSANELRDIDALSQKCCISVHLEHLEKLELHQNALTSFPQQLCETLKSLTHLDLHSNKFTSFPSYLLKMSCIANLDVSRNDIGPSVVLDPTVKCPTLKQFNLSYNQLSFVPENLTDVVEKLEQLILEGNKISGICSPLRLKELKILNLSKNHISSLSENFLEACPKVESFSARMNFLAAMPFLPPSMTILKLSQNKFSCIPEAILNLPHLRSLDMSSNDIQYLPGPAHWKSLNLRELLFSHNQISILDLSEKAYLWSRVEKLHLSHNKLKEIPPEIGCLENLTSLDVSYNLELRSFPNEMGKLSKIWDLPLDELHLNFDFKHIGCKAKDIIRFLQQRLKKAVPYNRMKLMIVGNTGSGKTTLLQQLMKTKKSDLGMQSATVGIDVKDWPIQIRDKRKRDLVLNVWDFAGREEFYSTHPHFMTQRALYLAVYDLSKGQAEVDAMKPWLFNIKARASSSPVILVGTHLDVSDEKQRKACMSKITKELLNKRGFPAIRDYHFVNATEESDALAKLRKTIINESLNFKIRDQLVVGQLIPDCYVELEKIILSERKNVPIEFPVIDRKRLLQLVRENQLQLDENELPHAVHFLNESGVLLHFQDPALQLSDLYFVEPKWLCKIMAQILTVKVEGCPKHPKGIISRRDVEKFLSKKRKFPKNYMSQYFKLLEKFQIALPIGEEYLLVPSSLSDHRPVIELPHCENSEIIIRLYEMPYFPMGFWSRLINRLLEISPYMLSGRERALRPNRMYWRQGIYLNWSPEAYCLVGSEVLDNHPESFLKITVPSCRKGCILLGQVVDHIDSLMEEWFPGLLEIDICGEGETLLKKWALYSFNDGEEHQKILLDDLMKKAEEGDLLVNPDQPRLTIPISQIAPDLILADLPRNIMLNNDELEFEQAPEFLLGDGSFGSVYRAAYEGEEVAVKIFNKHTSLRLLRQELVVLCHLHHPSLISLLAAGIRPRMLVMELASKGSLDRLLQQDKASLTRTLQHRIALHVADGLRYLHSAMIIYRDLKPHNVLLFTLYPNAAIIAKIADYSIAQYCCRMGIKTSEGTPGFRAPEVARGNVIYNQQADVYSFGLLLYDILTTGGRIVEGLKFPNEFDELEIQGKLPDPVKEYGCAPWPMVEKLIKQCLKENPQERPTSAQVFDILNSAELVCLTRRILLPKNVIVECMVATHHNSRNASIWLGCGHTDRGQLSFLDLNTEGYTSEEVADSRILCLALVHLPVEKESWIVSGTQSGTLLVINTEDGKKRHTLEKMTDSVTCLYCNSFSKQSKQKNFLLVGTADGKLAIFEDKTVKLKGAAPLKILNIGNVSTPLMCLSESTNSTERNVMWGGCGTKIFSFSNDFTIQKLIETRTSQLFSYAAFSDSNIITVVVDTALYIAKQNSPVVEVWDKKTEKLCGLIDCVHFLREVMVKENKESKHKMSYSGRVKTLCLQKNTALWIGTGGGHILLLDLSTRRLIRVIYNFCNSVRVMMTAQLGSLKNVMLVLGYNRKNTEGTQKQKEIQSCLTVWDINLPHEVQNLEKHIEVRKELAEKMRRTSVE
Procedure: Procedure: Enzyme was incubated with substrate peptide in reaction buffer in the presence and absence of test compounds or Staurosporine. All additions were done on ice, followed by the addition of ATP mix. Wells were uniformly mixed using an Eppendorff plate shaker and incubated at 30° C. for 20 min, and stopped by the addition of 5 μl of 3% phosphoric acid. Volume was increased to 100 μl by adding 0.8% phosphoric acid which was then transferred to PC filter mats (Millipore), pre-equilibrated with 70% ethanol and water. Plates were washed thrice with 100 μl 0.8% phosphoric acid and dried for an hour at 60° C. 100 μl scintillation fluid was added into each well and reading taken in Perkin Elmer TOPCOUNT beta counter. […] A validation EC50 curve was generated by plotting CPM for each Staurosporine concentration on y-axis against the Log concentration of Staurosporine (nM) on the x-axis followed by a best fit curve through the points.
After 1 hour Kinase Reaction incubation, 5 μL of Detection Mix was added.

Sequence of LRRK2 (Q5S007 970-2527): as the sequence (Q5S007 970-2527 G2019S) above, with S1050G counted along it

SMILES | IC50 (LRRK2) | IC50 (LRRK2 G2019S)
Cc1n[nH]c2ncc(-c3cncnc3NC3CCN(C)CC3)cc12 [Compound 19, 5-(3methyl-1H-pyrazolo[3,4-b]pyridine-5yl)-N-(1-methylpiperidine-4yl)pyrimidin-4-amine] | > 500 nM | > 500 nM
Cc1n[nH]c2ncc(-c3cnccn3)cc12 [Compound 45, 3-methyl-5-(pyrazin-2-yl)-1H-pyrazolo[3,4-b]pyridine] | > 1000 nM | > 1000 nM
Cc1n[nH]c2ncc(-c3nccnc3N3CCCC3)cc12 [Compound 74, 3-methyl-5-(3-(pyrrolidin-1-yl)pyrazin-2-yl)-1H-pyrazolo[3,4-b]pyridine] | > 1000 nM | > 1000 nM
Cc1n[nH]c2ncc(-c3cccc(S(=O)(=O)N(C)C)c3)cc12 [Compound 111, N, N-dimethyl-3-(3-methyl-1H-pyrazolo[3,4-b]pyridin-5-yl)benzenesulfonamide] | > 1000 nM | > 1000 nM
CC(=O)Nc1cccc(-c2cnc3[nH]nc(C)c3c2)c1 [Compound 114, N-(3-(3-methyl-1H-pyrazolo[3,4-b]pyridin-5-yl)phenyl)acetamide] | > 1000 nM | > 1000 nM
Cn1cc(-c2cnc3[nH]ncc3c2)cn1 [Compound 117, 5-(1-methyl-1H-pyrazol-4-yl)-1H-pyrazolo[3,4-b]pyridine] | > 1000 nM | > 1000 nM
CCOC(=O)c1cccc(-c2cnc3[nH]nc(C)c3c2)c1 [Compound 119, ethyl 3-(3-methyl-1H-pyrazolo[3,4-b]pyridin-5-yl)benzoate] | > 1000 nM | > 1000 nM
Cc1n[nH]c2ncc(-c3cccc(CN4CCN(C)CC4)c3)cc12 [Compound 123, 3-methyl-5-(3-((4-methylpiperazin-1-yl)methyl)phenyl)-1H-pyrazolo[3,4-b]pyridine] | > 1000 nM | > 1000 nM
O=C1CN(c2cncc(-c3cnc4[nH]ccc4c3)n2)CCN1 [Compound 133, 4-(6-(1H-pyrrolo[2,3-b]pyridin-5-yl)pyrazin-2-yl)piperazin-2-one] | > 500 nM | > 500 nM
CN1CCN(C(=O)c2cncc(-c3cnc4[nH]ccc4c3)n2)CC1 [Compound 139, (6-(1H-pyrrolo[2,3-b]pyridin-5-yl)pyrazin-2-yl)(4-methylpiperazin-1-yl)methanone] | > 1000 nM | > 1000 nM
CN1CCC(Nc2cncc(-c3cnc4[nH]ccc4c3)n2)CC1 [Compound 140, N-(1-methylpiperidin-4-yl)-6-(1H-pyrrolo[2,3-b]pyridin-5-yl)pyrazin-2-amine] | < 500 nM | < 500 nM
C=CC(=O)Nc1cccc(-c2cnc3[nH]nc(C)c3c2)c1 [Compound 155, N-(3-(3-methyl-1H-pyrazolo[3,4-b]pyridin-5-yl)phenyl)acrylamide] | > 1000 nM | > 1000 nM

Now from value to compound:

IC50 (LRRK2) | IC50 (LRRK2 G2019S) | SMILES
> 500 nM | > 500 nM | Cc1n[nH]c2ncc(NC3CCCN(Cc4ccc(F)c(F)c4)C3)cc12 (stereo not drawn) [Compound 26]
> 1000 nM | > 1000 nM | Cc1n[nH]c2ncc(-c3cncc(Cl)n3)cc12 [Compound 42, 5-(6-chloropyrazin-2-yl)-3-methyl-1H-pyrazolo[3,4-b]pyridine]
> 500 nM | > 500 nM | CN1CC(Nc2cncc(-c3cnc4[nH]ccc4c3)n2)C1 [Compound 130, N-(1-methylazetidin-3-yl)-6-(1H-pyrrolo[2,3-b]pyridin-5-yl)pyrazin-2-amine]
> 500 nM | > 500 nM | O=C(c1cncc(-c2cnc3[nH]ccc3c2)n1)N1CCCCC1 [Compound 138, (6-(1H-pyrrolo[2,3-b]pyridin-5-yl)pyrazin-2-yl)(piperidin-1-yl)methanone]
< 500 nM | < 500 nM | CN1CCC(Nc2cncc(-c3cnc4[nH]cc(Cl)c4c3)n2)CC1 [Compound 141, 6-(3-chloro-1H-pyrrolo[2,3-b]pyridin-5-yl)-N-(1-methylpiperidin-4-yl)pyrazin-2-amine]
> 1000 nM | > 1000 nM | Cc1n[nH]c2ncc(-c3cccc(CC#N)c3)cc12 [Compound 158, 2-(3-(3-methyl-1H-pyrazolo[3,4-b]pyridin-5-yl)phenyl)acetonitrile]
